{
  "source": "paper PMC11385396",
  "about": "(Journal of Ginseng Research, 2024)",
  "type_in_all_cases": "in vivo, Sprague-Dawley rats",
  "key": {"Coagulation function": {"assay": "Coagulation function", "conditions": "rats, 12h after last dose of one week gavage; compared with the control group"}, "coagulation factor II": {"system": "coagulation factor II", "assay": "Plasma coagulation factor II in rats", "conditions": "12h after last dose of one week gavage"}, "coagulation factor X": {"system": "coagulation factor X", "assay": "Plasma coagulation factor X in rats", "conditions": "12h after last dose of one week gavage"}},
  "data": [
    {"smiles": "CC(=O)CC(c1ccccc1)c1c(O)c2ccccc2oc1=O", "note": "(stereo not shown) [Warfarin]", "values": [
      {"measurement": "APTT", "setting": "Coagulation function", "value": "significantly increased"},
      {"measurement": "INR", "setting": "Coagulation function", "value": "significantly increased"},
      {"measurement": "plasma coagulation factor II", "setting": "coagulation factor II", "value": "reduce"},
      {"measurement": "plasma coagulation factor X", "setting": "coagulation factor X", "value": "reduce"}
    ]}
  ]
}
